From patent US11667602B2, “Compounds and their use” (AstraZeneca AB, priority 2020, dated 2023)

Molecular target: T1, human RXFP1 (Homo sapiens, UniProt Q9HBX9)
T1 sequence (Q9HBX9 1-757): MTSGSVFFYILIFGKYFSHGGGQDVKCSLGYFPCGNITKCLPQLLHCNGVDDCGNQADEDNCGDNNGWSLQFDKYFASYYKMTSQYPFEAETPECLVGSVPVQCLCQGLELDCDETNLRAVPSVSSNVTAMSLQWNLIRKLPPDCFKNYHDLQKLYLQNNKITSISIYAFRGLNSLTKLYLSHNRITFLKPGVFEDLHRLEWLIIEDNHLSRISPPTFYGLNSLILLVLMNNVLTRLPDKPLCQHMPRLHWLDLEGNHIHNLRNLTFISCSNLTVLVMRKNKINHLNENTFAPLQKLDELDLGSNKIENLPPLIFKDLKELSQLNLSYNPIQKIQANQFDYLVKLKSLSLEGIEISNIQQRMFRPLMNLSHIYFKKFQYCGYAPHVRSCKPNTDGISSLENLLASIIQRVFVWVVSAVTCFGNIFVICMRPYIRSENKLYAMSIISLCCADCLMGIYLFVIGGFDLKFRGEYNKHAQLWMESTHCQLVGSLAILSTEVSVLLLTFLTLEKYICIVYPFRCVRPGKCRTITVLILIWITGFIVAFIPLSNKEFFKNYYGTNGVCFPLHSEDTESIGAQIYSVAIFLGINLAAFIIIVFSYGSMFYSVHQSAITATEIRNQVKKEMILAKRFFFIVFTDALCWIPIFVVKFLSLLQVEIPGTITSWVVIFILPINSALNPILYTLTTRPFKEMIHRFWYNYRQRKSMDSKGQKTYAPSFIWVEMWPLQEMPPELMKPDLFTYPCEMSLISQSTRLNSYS
Assay: RXFP1 Hu cAMP (Test A)
Assay type: cell-based
Parameters: expressed in transfected cells; host or cells: Jump-In T-REx CHO-K1 cells (ThermoFisher), induced with 10 ng/ml doxycycline for 24 h
Conditions: RXFP1 Hu cAMP; for EC50: read-out: Test A EC50
Excerpt: To screen for modulators of hRXFP1, an assay identifying compounds that stimulate cAMP production via the Gs-coupled hRXFP1 receptor was used. cAMP HiRange HTRF kit (available from CisBio Bioassays, France; catalogue number 62AM6PEJ) was employed in large according to manufacturer's recommendations for detection of cAMP. The HTRF method is a competitive immunoassay between native cAMP produced by cells and cAMP labeled with the dye d2. The tracer binding is visualized with a cryptate labeled antibody for cAMP and the signal is thus inversely proportional to the amount of produced cAMP.
Cells: Jump-In™ T-REx™ CHO-K1 Cells (ThermoFisher) stably transfected with human RXFP1 was employed. Cells were induced to express human RXFP1 by treatment with 10 ng/ml doxycycline for 24 h. Cells were then cryopreserved for long term storage.
HTRF detection reagents: cAMP-d2 and anti-cAMP cryptate reconstituted according to CisBio instructions were diluted 1:40 in lysis buffer provided with the HTRF-kit.
3. 4 μL assay buffer with 1 mM IBMX (0.5 mM final concentration) to block phosphodiesterases was added with Multidrop Combi (ThermoFisher).
6. 4 μL cAMP-d2 in lysis buffer was added with Multidrop Combi.
7. 4 μL anti-cAMP cryptate in lysis buffer was added with Multidrop Combi
8. 2 h incubation at room temperature
Using a cAMP standard curve, HTRF data was converted to amount cAMP produced in the samples which was subsequentially used for calculation of concentration responses. Concentration response data were fitted with a four parameter logistic fit, the Hill equation. The results from the assay are reported in Table 36 as EC50 (μM) and Sinf (%).
Where the assay was run multiple times for the same compound, the geometric mean is reported.
Sinf is the fitted activity level, efficacy, at infinite concentration of test compound. To facilitate comparison of efficacy data, efficacy was normalized to % effect of the response stimulated by a saturating concentration of relaxin (1 nM). Where the assay was run multiple times for the same compound, the arithmetic mean is reported.

Molecule | Test A Sinf | EC50
COc1cc(F)c(O[C@H]2CC[C@@](C)(C(=O)O)CC2)cc1C(=O)N[C@@H]1[C@H]2CC[C@H](C2)[C@@H]1C(=O)NC1CCC1 [Example 598] | 99% | 890 nM
COc1cc(F)c(O[C@H]2CC[C@@](C)(C(=O)O)CC2)cc1C(=O)NC1CCCCCC1C(=O)Nc1cccc(S(=O)(=O)C(F)(F)F)c1 (single isomer, unassigned) [Example 516, (1R,4s)-4-(2-Fluoro-4-methoxy-5-(((1S*,2R*)-2-((3-((trifluoromethyl)sulfonyl)phenyl)carbamoyl)cycloheptyl)carbamoyl)phenoxy)-1-methylcyclohexane-1-carboxylic acid] | 104% | 8 nM
COc1cc(C#N)c(O[C@H]2CC[C@@](C)(C(=O)O)CC2)cc1C(=O)N[C@@H]1[C@H]2CC[C@H](C2)[C@@H]1C(=O)NCCCC1CC1 [Example 132] | 113% | –
COc1cc(F)c(O[C@H]2CC[C@@](C)(C(=O)O)CC2)cc1C(=O)NC1C2C=CC(CC2)C1C(=O)NCC1(C)CCC1 (single isomer, unassigned) [Example 544, (1R,4s)-4-(2-Fluoro-4-methoxy-5-(((1R*,2S*,3R*,4S*)-3-(((1-methylcyclobutyl)methyl)carbamoyl)bicyclo[2.2.2]oct-5-en-2-yl)carbamoyl)phenoxy)-1-methylcyclohexane-1-carboxylic acid] | – | > 40000 nM
COc1cc(F)c(O[C@H]2CC[C@@](C)(C(N)=O)CC2)cc1C(=O)N[C@@H]1[C@@H]2CC[C@@H](C2)[C@@H]1C(=O)NCC1(C)CCC1 [Example 421, (1S,2S,3R,4R)-3-(5-(((1s,4S)-4-Carbamoyl-4-methylcyclohexyl)oxy)-4-fluoro-2-methoxybenzamido)-N-((1-methylcyclobutyl)methyl)bicyclo[2.2.1]heptane-2-carboxamide] | 96% | 44 nM
COc1cc(F)c(O[C@H]2CC[C@@](C)(C(=O)O)CC2)cc1C(=O)NC1C2CCC(O2)C1C(=O)NCC1(C)CCC1 (single isomer, unassigned) [Example 530, (1R,4s)-4-(2-Fluoro-4-methoxy-5-(((1S*,2S*,3R*,4R*)-3-(((1-methylcyclobutyl)methyl)carbamoyl)-7-oxabicyclo[2.2.1]heptan-2-yl)carbamoyl)phenoxy)-1-methylcyclohexane-1-carboxylic acid] | 96% | 170 nM
COCc1cc(F)c(O[C@H]2CC[C@@](C)(C(=O)O)CC2)cc1C(=O)N[C@@H]1[C@H]2CC[C@H](C2)[C@@H]1C(=O)NCC1(C)CCC1 [Example 380] | – | > 2500 nM
(1R,4s)-4-(2-Fluoro-4-methoxy-5-(((1R*,2S*,3R*,4S*)-3-(((1-methylcyclobutyl)methyl)carbamoyl)bicyclo[2.2.2]oct-5-en-2-yl)carbamoyl)phenoxy)-1-methylcyclohexane-1-carboxylic acid [Example 545] | 91% | –
CC1(CNC(=O)C2C3CCC(CC3)C2NC(=O)c2cc(O[C@H]3CC[C@@](C)(C(=O)O)CC3)c(C#N)cc2F)CCC1 (single isomer, unassigned) [Example 588, (1R,4s)-4-(2-Cyano-4-fluoro-5-(((2S*,3R*)-3-(((1-methylcyclobutyl)methyl)carbamoyl)bicyclo[2.2.2]octan-2-yl)carbamoyl)phenoxy)-1-methylcyclohexane-1-carboxylic acid] | 95% | 7.6 nM
COc1cc(F)c(-c2ccc(C(=O)O)cc2)cc1C(=O)N[C@@H]1[C@H]2CC[C@H](C2)[C@@H]1C(=O)NCC(C)(C)C [Example 304] | 95% | –
(1R,4s)-4-(2-Fluoro-4-methoxy-5-(((1S*,2S*,3R*,4R*)-3-((3-((trifluoromethyl)sulfonyl)phenyl)carbamoyl)bicyclo[2.2.1]heptan-2-yl)carbamoyl)phenoxy)-1-methylcyclohexane-1-carboxylic acid [Example 587] | 113% | –
COc1cc(F)c(O[C@H]2CC[C@@](C)(C(=O)O)CC2)cc1C(=O)N[C@@H]1[C@H]2CC[C@H](C2)[C@@H]1C(=O)NC1CCCC1(C)C (relative stereo) [Example 503, (1S,4s)-4-(5-(((1S,2R,3S,4R)-3-(((R*)-2,2-Dimethylcyclopentyl)carbamoyl)bicyclo[2.2.1]heptan-2-yl)carbamoyl)-2-fluoro-4-methoxyphenoxy)-1-methylcyclohexane-1-carboxylic acid] | 102% | 60 nM
COc1cc(F)c(O[C@H]2CC[C@@](C)(C(=O)O)CC2)cc1C(=O)N[C@@H]1[C@H]2CC[C@H](C2)[C@@H]1C(=O)NCC(C)(C)OC [Example 610] | 105% | –
COc1cc(C#N)c(O[C@H]2CC[C@@](C)(C(=O)O)CC2)cc1C(=O)Nc1cc(Cl)ccc1C(=O)NC12CC(C1)C2 [Example 161] | 170% | 130 nM
COc1cc(C#N)c(O[C@H]2CC[C@@](C)(C(=O)O)CC2)cc1C(=O)Nc1cc(Cl)ccc1C(=O)NCC1(F)CCC1 [Example 160] | 125% | 160 nM
COc1cc(F)c(O[C@H]2CC[C@@](C)(C(=O)O)CC2)cc1C(=O)N[C@@H]1COC[C@@H]1C(=O)NCC(C)(C)C (racemic) [Example 345] | – | > 40000 nM
COc1cc(F)c(OCCCCCCCCC(=O)O)cc1C(=O)N[C@@H]1[C@H]2CC[C@H](C2)[C@@H]1C(=O)Nc1cccc(S(=O)(=O)C(F)(F)F)c1 [Example 437] | 104% | 950 nM
CCCNC(=O)[C@H]1[C@@H]2CC[C@@H](C2)[C@H]1NC(=O)c1cc(O[C@H]2CC[C@@](C)(C(=O)O)CC2)c(C#N)cc1OC [Example 116, (1S,4s)-4-(2-Cyano-4-methoxy-5-(((1S,2R,3S,4R)-3-(propylcarbamoyl)bicyclo[2.2.1]heptan-2-yl)carbamoyl)phenoxy)-1-methylcyclohexane-1-carboxylic acid] | 106% | 860 nM
COc1cc(F)c(Cn2ccc(C(=O)O)n2)cc1C(=O)N[C@@H]1[C@H]2CC[C@H](C2)[C@@H]1C(=O)Nc1cccc(S(=O)(=O)C(F)(F)F)c1 [Example 222, 1-(2-Fluoro-4-methoxy-5-(((1S,2R,3S,4R)-3-((3-((trifluoromethyl)sulfonyl)phenyl)carbamoyl)bicyclo[2.2.1]heptan-2-yl)carbamoyl)benzyl)-1H-pyrazole-3-carboxylic acid] | – | > 40000 nM
CCC(CC)NC(=O)c1ccc(C)cc1NC(=O)c1cc(O[C@H]2CC[C@@](C)(C(=O)O)CC2)c(C#N)cc1OC [Example 168] | 121% | > 2200 nM
COc1cc(C#N)c(Oc2ccc(C(=O)O)cc2)cc1C(=O)N[C@@H]1[C@H]2CC[C@H](C2)[C@@H]1C(=O)NCC1(C)CCC1 [Example 483] | 92% | 610 nM
CCCCCCNC(=O)[C@H]1[C@@H]2CC[C@@H](C2)[C@H]1NC(=O)c1cc(O[C@H]2CC[C@@](C)(C(=O)O)CC2)c(C#N)cc1OC [Example 117] | 100% | 110 nM
COc1cc(F)c(O[C@H]2CC[C@@](C)(C(=O)O)CC2)cc1C(=O)N[C@@H]1[C@H]2CC[C@H](C2)[C@@H]1C(=O)N[C@H]1CCCN(S(=O)(=O)C(F)(F)F)C1 [Example 607] | 92% | 160 nM
